Data set [1] concerns A549. The experiment in a line: Potency index, ratio of […] for cytotoxicity against human A549 cells assessed as reduction in cell viability. The data set is classed as functional.
In data set [2] the test system is A549. The experiment in a line: Cytotoxicity against human A549 cells assessed as reduction in cell viability. The data set is classed as functional, cell-based.
Data set [3] relates to HCT-116. The experiment in a line: Cytotoxicity against human HCT-116 cells assessed as reduction in cell viability. The data set is classed as functional, cell-based.
Data set [4] concerns HeLa. The experiment in a line: Cytotoxicity against human HeLa cells assessed as reduction in cell viability. The data set is classed as functional, cell-based.
The target of data set [5] is T1, Tubulin (Homo sapiens) (UniProt P68371+Q9H4B7+P0DPH7+P68366+Q13509+Q71U36+P04350+Q3ZCM7+P07437+P68363+Q9BQE3+Q6PEY2+Q13885+Q9BVA1+Q9BUF5). Description: Inhibition of colchicine binding to tubulin (unknown origin) at 1 uM by fluorescence assay. The data set is classed as protein-complex assay.
Data set [6] concerns A549. Description: Cytotoxicity against human A549 cells assessed as cell death measured after 2 to 3 days. The data set is classed as functional, cell-based. The settings on record: time 2-3 day.
In data set [7] the test system is MDA-MB-231. The experiment in a line: Cytotoxicity against human MDA-MB-231 cells assessed as reduction in cell viability. The data set is classed as functional, cell-based.
The test system of data set [8] is A549. Description: Induction of mitotic arrest in human A549 cells assessed as reduction in microtubule network with fragmented spindle poles at 0.50 uM measured after 8 hrs by DAPI/ACA staining based fluorescence microscopic analysis. The data set is classed as functional, cell-based. The settings on record: dose 0.5 µM.
Data set [9] can be described thus: Selectivity index, ratio of IC50 for cytotoxicity against human fibroblasts to IC50 for human MDA-MB-231 cells. The data set is classed as toxicity, cell-based. The settings on record: human fibroblasts versus MDA-MB-231 cells, read-out: Selectivity Index.
Data set [10] has as its system A549. Description: Antitumor activity against human A549 cell assessed as disrupted in spheroid morphology at 0.5 to 1 uM measured after 6 days. The data set is classed as functional, cell-based. Particulars: dose 0.5-1 µM, time 6.0 day.
Data set [11] concerns the target T1, Tubulin (Homo sapiens). The experiment in a line: Inhibition of microtubule (unknown origin) polymerization at 5 uM. The data set is classed as protein-complex assay.
Data set [12] has as its system HFF-1. The experiment in a line: Cytotoxicity against human HFF-1 cells assessed as reduction in cell viability. The data set is classed as cell-based.
The nature of data set [13]: Selectivity index, ratio of IC50 for cytotoxicity against human fibroblasts to IC50 for human HCT-116 cells. The data set is classed as toxicity, cell-based. Particulars: human fibroblasts versus HCT-116 cells, read-out: Selectivity Index.
Data set [14] deals with T1, Tubulin (Homo sapiens). Description: Inhibition of microtubule (unknown origin) polymerization at 0.6 uM. The data set is classed as protein-complex assay.
The test system of data set [15] is Fibroblast. Description: Cytotoxicity against human fibroblasts assessed as reduction in cell viability. The data set is classed as cell-based.
The nature of data set [16]: Selectivity index, ratio of IC50 for cytotoxicity against human fibroblasts to IC50 for human HeLa cells. The data set is classed as toxicity, cell-based. The settings on record: human fibroblasts versus HeLa cells, read-out: Selectivity Index.
Data set [17] can be described thus: Selectivity index, ratio of IC50 for cytotoxicity against human fibroblasts to IC50 for human A549 cells. The data set is classed as toxicity, cell-based. Particulars: human fibroblasts versus A549 cells, read-out: Selectivity Index.

Activity calls are given as the source filed them. The calls are words filed in the database; no cut-off is given here. Where only a bound is given, the exact number is not on record here.

Usually IC50 stands for the concentration that gives 50% inhibition. `O=S(=O)(c1ccc(C(F)(F)F)cc1)N1Cc2ccccc2-c2sc(Br)cc21`: the “Ratio IC50” value in data set [1] was more than 625. Besides, the IC50 in data set [2] was more than 10000 nM.

As to `O=S(=O)(c1ccc(C(F)(F)F)cc1)N1Cc2ccccc2-c2sccc21`, the IC50 in data set [2] was more than 10000 nM.

For `COc1cc2c(c(OC)c1OC)-c1ccc(OC)c(=O)cc1[C@@H](NC(C)=O)CC2` [COLCHICINE], the IC50 in data set [3] turned out to be 22 nM; in data set [2], 16 nM; in [4], 10 nM.

On to `CC(C)(C)c1ccc(S(=O)(=O)N2Cc3ccccc3-c3sccc32)cc1`, for which, in data set [2], the IC50 is more than 10000 nM.

Regarding `CC(C)(C)c1ccc(S(=O)(=O)N2Cc3ccccc3-c3sc(Br)cc32)cc1`, the “Ratio IC50” value in [1] was more than 625. The IC50 in data set [2] was more than 10000 nM.

Regarding `CS(=O)(=O)N1Cc2ccccc2-c2sccc21`, the IC50 in [2] is more than 10000 nM.

For `O=S(=O)(c1cccs1)N1Cc2ccccc2-c2sccc21`, the IC50 in [2] is more than 10000 nM.

For `Cc1cccc(S(=O)(=O)N2Cc3ccccc3-c3sc(Br)cc32)c1`, in data set [1], the “Ratio IC50” value turned out to be 143.7. Also, the IC50 in data set [2] was 2300 nM.

Regarding `COc1ccc(S(=O)(=O)N2Cc3ccccc3-c3scc(C)c32)cc1`, in data set [1], the “Ratio IC50” value was found to be 39.3. Besides, the IC50 in [2] is 630 nM.

As to `COc1ccc(S(=O)(=O)N2Cc3ccccc3-c3sc(I)cc32)cc1`, the “Ratio IC50” value in data set [1] turned out to be 48.7. For the same compound, the IC50 in data set [2] turned out to be 780 nM.

Consider `O=S(=O)(c1ccccc1)N1Cc2ccccc2-c2sccc21`, for which the IC50 in data set [2] worked out at 5200 nM.

Consider `Cc1cccc(S(=O)(=O)N2Cc3ccccc3-c3sccc32)c1`, for which the IC50 in data set [2] turned out to be 6000 nM.

`COc1ccc(S(=O)(=O)N2Cc3ccccc3-c3sc(Br)c(C)c32)cc1`: in data set [1], the “Ratio IC50” value was determined as 175. Further, the IC50 in data set [2] turned out to be 2800 nM.

As for `Cc1ccc(S(=O)(=O)N2Cc3ccccc3-c3sc(Br)cc32)cc1`, the “Ratio IC50” value in [1] is on record as 131.2. The IC50 in [2] turned out to be 2100 nM.

`COC(=O)Nc1nc2cc(C(=O)c3cccs3)ccc2[nH]1`: the inhibition result in [5] was “Active”.

For `COc1ccc(S(=O)(=O)N2Cc3ccccc3-c3sc(Cl)cc32)cc1`, the “Ratio IC50” value in data set [1] was determined as 36.8. The IC50 in data set [2] stood at 430 nM.

For `COc1ccc(S(=O)(=O)N2Cc3ccccc3-c3sc(Br)cc32)cc1`, the result in data set [6] and in data set [10] was Active. Also, the IC50 in [7] was 260 nM; in [3], 430 nM; in data set [12] it was 790 nM; in data set [15], 1400 nM; in data set [2], 370 nM; in [4], 430 nM. In data set [8], the result was inactive. The selectivity ratio stood at 5.3 in data set [9], 3.2 in data set [13], 3.2 in [16] and 3.8 in [17]. Also, the inhibition result in data set [11], in data set [5] and in [14] was “Active” in each case. Further, the “Ratio IC50” value in [1] stood at 23.1.

Turning to `CS(=O)(=O)N1Cc2ccccc2-c2sc(Br)cc21`, the “Ratio IC50” value in data set [1] is more than 625. The IC50 in [2] is more than 10000 nM.

As to `CC[C@]1(O)C[C@@H]2CN(CCc3c([nH]c4ccccc34)[C@@](C(=O)OC)(c3cc4c(cc3OC)N(C)[C@H]3[C@@](O)(C(=O)OC)[C@H](OC(C)=O)[C@]5(CC)C=CCN6CC[C@]43[C@@H]65)C2)C1`, the inhibition entry in data set [5] is “inactive”.

Turning to `COc1ccc(S(=O)(=O)N2Cc3ccccc3-c3sccc32)cc1`, the IC50 in [2] was determined as 780 nM.

For the compound `COc1ccc(S(=O)(=O)N2Cc3ccccc3-c3sc(Cl)c(C)c32)cc1`, the “Ratio IC50” value in data set [1] amounted to 34.3. In data set [2], the IC50 came out at 550 nM.

With `O=S(=O)(c1ccccc1)N1Cc2ccccc2-c2sc(Br)cc21`, the “Ratio IC50” value in data set [1] is given as 118.7. In data set [2], the IC50 was found to be 1900 nM.

For `Cc1ccc(S(=O)(=O)N2Cc3ccccc3-c3sccc32)cc1`, the IC50 in data set [2] was found to be 3400 nM.
